Experimental data as given in patent US10647598B2, “Antimicrobial and algicidal agent for cooling water system” (KURITA WATER INDUSTRIES LTD., priority 2013, dated 2020).

Key:
[1] = system: Algae B; test: Test tube algicidal test on algae B sampled from cooling tower B; type: cell-based, green algae, containing blue-green algae and diatoms; details: visual inspection after 3 days at north-side window; CSA and algicidal agent amounts per example as in Table 1
Procedure: (§1) A test water system containing algae was prepared as described below.
(§2) Secondary treated water obtained by filtrating sewage using a filter having a pore diameter of 0.1 μm was received in a beaker having a volume of 1 L, and to this secondary treated water, 1 g of algae sampled from each of cooling towers A, B, and C in which an antimicrobial treatment was performed using a chlorosulfamic acid was added. Algae A sampled from the cooling tower A were diatoms and contained green algae. Algae B sampled from the cooling tower B were primarily formed of green algae and contained blue-green algae and diatoms. Algae C sampled from the cooling tower C were primarily formed of blue-green algae and contained green algae and diatoms.
(§3) After being raveled and sufficiently dispersed in the beaker, the algae A, B, and C were each dispensed into test tubes.
(§4) In Examples 1 to 5 and Comparative Examples 8 to 11 and 13 to 16, a chlorosulfamic acid (abbreviated as “CSA”, and the addition amount represents the residual chlorine concentration) and one of 5-chloro-2-methyl-4-isothiazolone-3-one (abbreviated as “MIT”), 2,2-dibromo-3-nitrilopropion amide (abbreviated as “DBNPA”), and 2-bromo-2-nitro-1,3-propanediol (abbreviated as “BNP) were added to each test tube so as to have predetermined concentrations shown in Table 1. In Comparative Example 6, MIT was only added. In Comparative Example 7, DBNPA was only added. In Comparative Example 12, BNP was only added. In Comparative Example 17, no chemical agents were added. Subsequently, after the test tubes were left for 3 days at a north-side window so as not to be exposed to direct sunlight, the conditions of the algae were observed by visual inspection and evaluated in accordance with the following criteria.
(§5) <Evaluation Criteria> • −: Reduction (death) of algae is apparently observed from the start of the test. • ±: Condition is the same as that at the start of the test. • +: Slight increase of algae is observed as compared to the condition at the start of the test. • ++: Apparent increase of algae is observed as compared to the condition at the start of the test. • +++: Significant increase of algae is observed as compared to the condition at the start of the test.

[2] = system: Algae C; test: Test tube algicidal test on algae C sampled from cooling tower C; type: cell-based, blue-green algae, containing green algae and diatoms; parameters: key to the marks not given beside the values; details: visual inspection after 3 days at north-side window; CSA and algicidal agent amounts per example as in Table 1
Procedure: as §1, §2, §3, §4, §5

[3] = system: Algae A; test: Test tube algicidal test on algae A sampled from cooling tower A; type: cell-based, diatoms, containing green algae; parameters: key to the marks not given beside the values; details: visual inspection after 3 days at north-side window; CSA and algicidal agent amounts per example as in Table 1
Procedure: as §1, §2, §3, §4, §5

[4] = system: algae A to C; test: Test tube algicidal test, overall assessment; type: cell-based; details: Table 1, algae A to C, 3 days
Procedure: as §1, §2, §3
In Examples 1 to 5 and Comparative Examples 8 to 11 and 13 to 16, a chlorosulfamic acid (abbreviated as “CSA”, and the addition amount represents the residual chlorine concentration) and one of 5-chloro-2-methyl-4-isothiazolone-3-one (abbreviated as “MIT”), 2,2-dibromo-3-nitrilopropion amide (abbreviated as “DBNPA”), and 2-bromo-2-nitro-1,3-propanediol (abbreviated as “BNP) were added to each test tube so as to have predetermined concentrations shown in Table 1. In Comparative Example 6, MIT was only added. In Comparative Example 7, DBNPA was only added. In Comparative Example 12, BNP was only added. In Comparative Example 17, no chemical agents were added. Subsequently, after the test tubes were left for 3 days at a north-side window so as not to be exposed to direct sunlight, the conditions of the algae were observed by visual inspection and evaluated in accordance with the following criteria. […]

Structure (SMILES) | Evaluation Results Algae B [1] | Evaluation Results Algae C [2] | Evaluation Results Algae A [3] | Algicidal effect, assessment in words [4]
O=S(=O)(O)NCl [Comparative Example 1, chlorosulfamic acid] | ++ | +++ | +++ | 
O=S(=O)(O)NCl [compound 4, chlorosulfamic acid] | + | ++ | +++ | a sufficient effect also cannot be obtained
O=S(=O)(O)NCl [compound 2, chlorosulfamic acid] | ++ | +++ | +++ | 
O=[N+]([O-])C(Br)(CO)CO [Comparative Example 12, 2-bromo-2-nitro-1,3-propanediol] | ++ | +++ | ++ | 
N#CC(Br)(Br)C(N)=O [Comparative Example 7, 2,2-dibromo-3-nitrilopropion amide] | + | +++ | ++ | 
O=S(=O)(O)NCl [compound 3, chlorosulfamic acid] | ++ | +++ | +++ | 
Cn1sc(Cl)cc1=O [Comparative Example 6, 5-chloro-2-methyl-4-isothiazolone-3-one] | + | +++ | ++ | a sufficient effect cannot be obtained
O=S(=O)(O)NCl [compound 5, chlorosulfamic acid] | + | ++ | +++ | a sufficient effect also cannot be obtained
